Measured values taken from patent US20160264616A1, “THERAPEUTIC COMPOUNDS AND METHODS” (priority 2015, published 2016).
Entries after “also recorded” stand apart in the source; their conditions may differ.

Tests used:
[1] = test system: RGS17ΔN:Gαo interaction in HEK293T cells; experiment: RGS localization assay, GFP-RGS17ΔN co-transfected with hGαo in HEK293T cells; assay type: cell-based, human
Experimental: (§1) HEK293T cells co-transfected with GFP-RGS17FL and human Gαo were treated with UI-5, UI-1590 and […] to determine if the compounds could disrupt the RGS17:Gαo interaction that could drive RGS17 to the membrane. […] To test this hypothesis, we constructed a GFP-RGS17 fusion protein with an N-terminal truncation, removing the cysteine-rich motif. […] As a negative control, we tested a known RGS4 inhibitor (CCG-50014) in this assay against RGS17ΔN (21). […] Finally, to ensure the localization was not due to the GFP tag, pAcGFP vector was co-transfected into HEK293T cells with hGαo. […] Cross-sectional fluorescence intensity analysis was used to quantify the intensity of signal at a cross section of the cell. Average signal at the membrane and in the cytoplasm were calculated and change in signal intensity was assessed between time zero and time final. […] Additionally, the control condition of CCG-50014 was subject to the same analyses as the lead compound.
Twenty four (24) hours prior to plating, assay plates were coated with 30 μl poly-D-lysine per well. Human Embryonic Kidney 293T cells (HEK293T) were plated in to 96 well tissue culture treated glass bottom view plates (Perkin Elmer, Part No. 6005430) at a density of 25K cells per well. 24 hours post seeding, cells were transfected with hGαo in pCDNA 3.1(+), pAcGFPRGS17 FL, pAcGFP RGS17ΔN, empty pAcGFP, hGαo+pAcGFPRGS17 FL, hGαo+pAcGFP RGS17ΔN, or hGαo+empty pAcGFP vector using Lipofectamine 2000 (Life Technologies) as the transfection reagent and according to manufacture protocols. 24 hours post transfection, cell media was removed and replaced with […] serum free, phenol red free DMEM (Life Technologies, Ref No. 31053-028). Cells were then imaged using a Zeiss LSM510 confocal microscope (University of Iowa Central Microscopy Core). Images were analyzed using NIH Image J software and Graphpad Prism 6.
Compounds at 2× final desired concentrations were diluted in serum free, phenol red free DMEM.

[2] = test system: RGS17FL:Gαo interaction in HEK293T cells; experiment: RGS localization assay, GFP-RGS17FL co-transfected with human Gαo in HEK293T cells; assay type: cell-based; conditions: 100 μM, 0-10 min
Experimental: as §1
Twenty four (24) hours prior to plating, assay plates were coated with 30 μl poly-D-lysine per well. Human Embryonic Kidney 293T cells (HEK293T) were plated in to 96 well tissue culture treated glass bottom view plates (Perkin Elmer, Part No. 6005430) at a density of 25K cells per well. […] Images were analyzed using NIH Image J software and Graphpad Prism 6. […]

Gαo = target: T1, Gαo (Homo sapiens, UniProt P09471); experiment: Differential scanning fluorimetry (DSF) with Gαo; assay type: binding; conditions: 50 μM compound
T1 construct: 6xHis; made in house; host or cells: BL21 (DE3) E. coli (printed 'B1-21 (DE3)')
Experimental: Further evaluation of the compounds designated UI-5, UI-1590, UI-1907 and UI-1956 was conducted using Differential Scanning Fluorimetry (DSF). This method allows for the rapid measurement of protein stability based on the melting temperature (Tm) of the target protein that is bound by ligand. A shift of Tm indicates a change in protein stability to melting due to stabilization added by the small molecule binding to the target protein. The four compounds were incubated at 50 μM with RGS17 or Gαo in the presence of Sypro Orange. In aqueous solution the fluorescence emission from the dye is very weak. […] The hydrophobic parts of a native, fully folded, protein in solution are generally buried within the protein and therefore not accessible to the dye resulting in little fluorescence emission. When the protein unfolds the dye molecules can bind to the exposed hydrophobic regions of the proteins, resulting in increased fluorescence. […]
Differential scanning fluorimetry experiments were carried out using white 384-well μltraAMP PCR plates (Sorenson BioSciences; Salt Lake City, Utah). […] All data was collected using the Roche LightCycler data acquisition ability and analyzed with Graphpad Prism 6.0, using first and second derivatives of the fluorescent melting curves.

T1 sequence (P09471 whole entry): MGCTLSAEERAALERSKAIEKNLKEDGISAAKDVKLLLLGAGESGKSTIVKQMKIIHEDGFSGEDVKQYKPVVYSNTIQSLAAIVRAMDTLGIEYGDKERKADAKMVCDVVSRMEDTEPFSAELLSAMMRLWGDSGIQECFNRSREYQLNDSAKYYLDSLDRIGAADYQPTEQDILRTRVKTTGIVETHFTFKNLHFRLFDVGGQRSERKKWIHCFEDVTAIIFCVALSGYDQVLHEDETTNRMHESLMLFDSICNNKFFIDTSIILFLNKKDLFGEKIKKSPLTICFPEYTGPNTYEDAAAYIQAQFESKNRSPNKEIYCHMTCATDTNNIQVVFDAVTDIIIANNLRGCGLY

| SMILES | delocalization / cellular activity ([1]; 10 μM compound) | time to full delocalization of GFP-RGS17 from the membrane ([1]; 10 μM compound) | delocalization of RGS17ΔN from the membrane ([1]; 100 μM compound) | time to full delocalization of GFP-RGS17 from the membrane ([1]; 100 μM compound) | delocalization of full length RGS17FL [2] | effect on Gαo thermal stability (DSF) (Gαo) |
| --- | --- | --- | --- | --- | --- | --- |
| C[n+]1cc2c3c(ccc2c2ccc4cc5c(cc4c21)OCO5)OCO3 [UI-5] | had cellular activity | 30 min | delocalization occurs | 5 min | remained at the membrane; also recorded: does not diffuse back in to the cytoplasm |  |
| CC1=C(O)C(=O)C=C2C1=CC=C1[C@@]2(C)CC[C@@]2(C)[C@@H]3C[C@](C)(C(=O)O)CC[C@]3(C)CC[C@]12C [UI-1590] | had cellular activity | 20 min | delocalization occurs | 5 min |  |  |
| CC(C)=CCC[C@]1(C)C=Cc2c(O)c3c(c(CC=C(C)C)c2O1)O[C@]12C(=C[C@@H]4C[C@H]1C(C)(C)O[C@@]2(C/C=C(/C)C(=O)O)C4=O)C3=O [UI-1907] |  |  | not |  |  | decrease the thermal stability of the Gαo subunit |
| O=c1c(-c2cc(O)c(O)c(O)c2)coc2cc(O)c(O)c(O)c12 [UI-1956, 5,6,7-trihydroxy-3-(3,4,5-trihydroxyphenyl)-4H-chromen-4-one] | had cellular activity | 30 min | delocalization occurs | 20 min |  |  |
